In assay [1] the test system is control Gram-negative E. coli 25922 strain. In words: Antibacterial activity, microbroth dilution MIC, E. coli 25922. In kind it is cell-based, Escherichia coli. The following applies: Escherichia coli; E. coli 25922, microbroth dilution; read-out: MIC, 25922.
The subject of assay [2] is Gram-positive Staphylococcus aureus (S. aureus) 29213. The experiment in a line: Antibacterial activity, microbroth dilution MIC, S. aureus 29213. In kind it is cell-based. The following applies: Staphylococcus aureus; S. aureus 29213, microbroth dilution; read-out: MIC, 29213. For orientation: Broth dilution looks for growth in wells or tubes with falling amounts of substance.

Assay [3] concerns super sensitive Gram-negative Escherichia coli (E. coli) BAS849. In words: Antibacterial activity, microbroth dilution MIC, E. coli BAS849. In kind it is cell-based. Particulars: Escherichia coli, read-out: MIC, BAS849.
Where [4] appears, read: E. coli BAS849, microbroth dilution.

≈ marks a conversion by molar mass, not a printed value. Read-outs that look alike come from different tables or passages of the source.

Consider `CCc1c(-c2ccc(I)cc2)[nH]c(=O)c(C(=O)O)c1O` [Cpd 81, 5-ethyl-4-hydroxy-6-(4-iodophenyl)-2-oxo-1,2-dihydropyridine-3-carboxylic acid], for which the MIC (in general, the smallest concentration in the dilution series that meets the test's criterion for growth inhibition) in assay [1] lay in the range of 12.5 to 150 µg/mL (≈ 32.5 to 389 µM); in assay [2], 3.5 to 12.5 µg/mL (≈ 9.09 to 32.5 µM); in assay [3] (setting [4]), 1 to 3.5 µg/mL (≈ 2.6 to 9.09 µM).
For `CCc1cc(C(=O)O)c(=O)[nH]c1-c1ccccc1N1CCCCC1` [Cpd 31, 5-ethyl-2-oxo-6-[2-(piperidin-1-yl)phenyl]-1,2-dihydropyridine-3-carboxylic acid], the MIC in assay [1], in assay [2] and in assay [3] (setting [4]) was 12.5 to 150 µg/mL (≈ 38.3 to 460 µM) in each case.
Consider `CCc1cc(C(=O)O)c(=O)[nH]c1-c1ccc(N(C)C)cc1OC` [Cpd 62, 6-[4-(dimethylamino)-2-methoxyphenyl]-5-ethyl-2-oxo-1,2-dihydropyridine-3-carboxylic acid], for which the MIC in assay [1], in assay [2] and in assay [3] (setting [4]) was 12.5 to 150 µg/mL (≈ 39.5 to 474 µM) throughout.
Consider `CCc1cc(C(=O)O)c(=O)[nH]c1-c1ccc(N2CCC(CN(Cc3ccccc3)Cc3ccccc3)C2)cc1.O=C(O)C(F)(F)F` (stereo not drawn) [Cpd 181, 6-(4-{3-[(dibenzylamino)methyl]pyrrolidin-1-yl}phenyl)-5-ethyl-2-oxo-1,2-dihydropyridine-3-carboxylic acid trifluoroacetate], for which the MIC in assay [1] was 12.5 to 150 µg/mL; in assay [2], 12.5 to 150 µg/mL; in assay [3], 3.5 to 12.5 µg/mL.
Turning to `CCc1cc(C(=O)O)c(=O)[nH]c1-c1ccc(N2C[C@H]3CCN(Cc4ccccc4)[C@H]3C2)cc1.O=C(O)C(F)(F)F` [Cpd 189, 6-{4-[(3aR,6aR)-1-benzylhexahydropyrrolo[3,4-b]pyrrol-5(1H)-yl]phenyl}-5-ethyl-2-oxo-1,2-dihydropyridine-3-carboxylic acid trifluoroacetate], the MIC is 3.5 to 12.5 µg/mL in assay [1], 12.5 to 150 µg/mL in assay [2] and less than 1 µg/mL in assay [3].
For the compound `C=CCN(CC=C)c1ccc(-c2[nH]c(=O)c(C(=O)O)cc2CC)cc1` [Cpd 299, 6-{4-[di(prop-2-en-1-yl)amino]phenyl}-5-ethyl-2-oxo-1,2-dihydropyridine-3-carboxylic acid], the results for the minimum inhibitory concentration (MIC) in assay [1], in assay [2] and in assay [3] (setting [4]) were 12.5 to 150 µg/mL (≈ 36.9 to 443 µM), 12.5 to 150 µg/mL (≈ 36.9 to 443 µM) and 1 to 3.5 µg/mL (≈ 2.96 to 10.3 µM), respectively.
As for `CCc1c(-c2ccc(N(C)C)c(OC)c2)[nH]c(=O)c(C(=O)O)c1O` [Cpd 65, 6-[4-(dimethylamino)-3-methoxyphenyl]-5-ethyl-4-hydroxy-2-oxo-1,2-dihydropyridine-3-carboxylic acid], the MIC in assay [1] lay in the range of 12.5 to 150 µg/mL (≈ 37.6 to 451 µM); in assay [2], 12.5 to 150 µg/mL (≈ 37.6 to 451 µM); in assay [3] (setting [4]) it was 3.5 to 12.5 µg/mL (≈ 10.5 to 37.6 µM).
`CCc1cc(C(=O)O)c(=O)[nH]c1-c1ccc(OC)cc1OC` [Cpd 34, 6-(2,4-dimethoxyphenyl)-5-ethyl-2-oxo-1,2-dihydropyridine-3-carboxylic acid]: the MIC in assay [1], in assay [2] and in assay [3] (setting [4]) was 12.5 to 150 µg/mL (≈ 41.2 to 495 µM) throughout.
In the case of `CCc1cc(C(=O)O)c(=O)[nH]c1-c1ccc(Br)cc1` [Cpd 78, 6-(4-bromophenyl)-5-ethyl-2-oxo-1,2-dihydropyridine-3-carboxylic acid], the MIC in assay [1] fell in the range of 12.5 to 150 µg/mL (≈ 38.8 to 466 µM); in assay [2], 12.5 to 150 µg/mL (≈ 38.8 to 466 µM); in assay [3] (setting [4]), 3.5 to 12.5 µg/mL (≈ 10.9 to 38.8 µM).
Consider `CCc1cc(C(=O)O)c(=O)[nH]c1-c1ccc(OC)cc1C` [Cpd 33, 5-ethyl-6-(4-methoxy-2-methylphenyl)-2-oxo-1,2-dihydropyridine-3-carboxylic acid], for which the MIC in assay [1], in assay [2] and in assay [3] (setting [4]) was 12.5 to 150 µg/mL (≈ 43.5 to 522 µM) throughout.
On to `CCc1c(-c2ccc(OC)cc2OC)[nH]c(=O)c(C(=O)O)c1O` [Cpd 36, 6-(2,4-dimethoxyphenyl)-5-ethyl-4-hydroxy-2-oxo-1,2-dihydropyridine-3-carboxylic acid], for which the figures for the MIC in assay [1], in assay [2] and in assay [3] (setting [4]) were 12.5 to 150 µg/mL (≈ 39.1 to 470 µM), 12.5 to 150 µg/mL (≈ 39.1 to 470 µM) and 3.5 to 12.5 µg/mL (≈ 11 to 39.1 µM), respectively.
With `CCc1c(-c2cnn(C)c2)[nH]c(=O)c(C(=O)O)c1O` [Cpd 347, 5-ethyl-4-hydroxy-6-(1-methyl-1H-pyrazol-4-yl)-2-oxo-1,2-dihydropyridine-3-carboxylic acid], the MIC is 3.5 to 12.5 µg/mL (≈ 13.3 to 47.5 µM) in assay [1], 12.5 to 150 µg/mL (≈ 47.5 to 570 µM) in assay [2] and 1 to 3.5 µg/mL (≈ 3.8 to 13.3 µM) in assay [3] (setting [4]).
For `CCc1cc(C(=O)O)c(=O)[nH]c1-c1ccc(N2Cc3ccccc3C2)cc1` [Cpd 162, 6-[4-(1,3-dihydro-2H-isoindol-2-yl)phenyl]-5-ethyl-2-oxo-1,2-dihydropyridine-3-carboxylic acid] the same measures were 12.5 to 150 µg/mL (≈ 34.7 to 416 µM), 12.5 to 150 µg/mL (≈ 34.7 to 416 µM) and 3.5 to 12.5 µg/mL (≈ 9.71 to 34.7 µM).
For `CCc1c(-c2ccc(N(C)C)cc2C)[nH]c(=O)c(C(=O)O)c1O` [Cpd 56, 6-[4-(dimethylamino)-2-methylphenyl]-5-ethyl-4-hydroxy-2-oxo-1,2-dihydropyridine-3-carboxylic acid] the same measures were 12.5 to 150 µg/mL (≈ 39.5 to 474 µM), 3.5 to 12.5 µg/mL (≈ 11.1 to 39.5 µM) and 3.5 to 12.5 µg/mL (≈ 11.1 to 39.5 µM).
Taken in the same sequence, the figures for `O=C(O)c1c(O)cc(-c2ccc(N3CCCC3)cc2)[nH]c1=O` [Cpd 21, 4-hydroxy-2-oxo-6-[4-(pyrrolidin-1-yl)phenyl]-1,2-dihydropyridine-3-carboxylic acid] were 12.5 to 150 µg/mL (≈ 41.6 to 499 µM), 3.5 to 12.5 µg/mL (≈ 11.7 to 41.6 µM) and 3.5 to 12.5 µg/mL (≈ 11.7 to 41.6 µM).
On to `CCc1cc(C(=O)O)c(=O)[nH]c1-c1ccc(N(C)C)c(OC)c1` [Cpd 64, 6-[4-(dimethylamino)-3-methoxyphenyl]-5-ethyl-2-oxo-1,2-dihydropyridine-3-carboxylic acid], for which the figures for the MIC in assay [1], in assay [2] and in assay [3] (setting [4]) were 12.5 to 150 µg/mL (≈ 39.5 to 474 µM), 12.5 to 150 µg/mL (≈ 39.5 to 474 µM) and 3.5 to 12.5 µg/mL (≈ 11.1 to 39.5 µM), respectively.
Take `CCc1cc(C(=O)O)c(=O)[nH]c1-c1ccc(N2CC(OC3CCCCO3)C2)cc1` (stereo not drawn) [Cpd 120, 5-ethyl-2-oxo-6-{4-[3-(tetrahydro-2H-pyran-2-yloxy)azetidin-1-yl]phenyl}-1,2-dihydropyridine-3-carboxylic acid]: the values for the MIC in assay [1], in assay [2] and in assay [3] (setting [4]) were 12.5 to 150 µg/mL (≈ 31.4 to 376 µM), 12.5 to 150 µg/mL (≈ 31.4 to 376 µM) and less than 1 µg/mL, respectively.
Turning to `CCc1cc(C(=O)O)c(=O)[nH]c1-c1ccc(N2C[C@@H](N)[C@H](O)C2)cc1.Cl` [Cpd 133, 6-{4-[(3R,4R)-3-amino-4-hydroxypyrrolidin-1-yl]phenyl}-5-ethyl-2-oxo-1,2-dihydropyridine-3-carboxylic acid hydrochloride], the MIC in assay [1] was 12.5 to 150 µg/mL; in assay [2] it was 12.5 to 150 µg/mL; in assay [3] (setting [4]), 1 to 3.5 µg/mL.
As for `CCc1cc(C(=O)O)c(=O)[nH]c1-c1ccc(OC)cc1N1CCCC1` [Cpd 35, 5-ethyl-6-[4-methoxy-2-(pyrrolidin-1-yl)phenyl]-2-oxo-1,2-dihydropyridine-3-carboxylic acid], the MIC in assay [1], in assay [2] and in assay [3] (setting [4]) was 12.5 to 150 µg/mL (≈ 36.5 to 438 µM) each time.
As for `CCc1cc(C(=O)O)c(=O)[nH]c1-c1ccc(N2CC3OCCN(Cc4ccccc4)C3C2)cc1.O=C(O)C(F)(F)F` (stereo not drawn) [Cpd 180, 6-[4-(4-benzylhexahydropyrrolo[3,4-b][1,4]oxazin-6(2H)-yl)phenyl]-5-ethyl-2-oxo-1,2-dihydropyridine-3-carboxylic acid trifluoroacetate], the minimum inhibitory concentration (MIC) in assay [1] was 12.5 to 150 µg/mL; in assay [2], 12.5 to 150 µg/mL; in assay [3], 1 to 3.5 µg/mL.
Consider `CCc1c(-c2ccccc2N(C)C)[nH]c(=O)c(C(=O)O)c1O` [Cpd 58, 6-[2-(dimethylamino)phenyl]-5-ethyl-4-hydroxy-2-oxo-1,2-dihydropyridine-3-carboxylic acid], for which the minimal inhibitory concentration (MIC) in assay [1] was 12.5 to 150 µg/mL (≈ 41.3 to 496 µM); in assay [2], 3.5 to 12.5 µg/mL (≈ 11.6 to 41.3 µM); in assay [3] (setting [4]), 3.5 to 12.5 µg/mL (≈ 11.6 to 41.3 µM).
Consider `CCc1cc(C(=O)O)c(=O)[nH]c1-c1ccc(N(C)C)s1` [Cpd 305, 6-[5-(dimethylamino)thiophen-2-yl]-5-ethyl-2-oxo-1,2-dihydropyridine-3-carboxylic acid], for which the MIC was 12.5 to 150 µg/mL (≈ 42.8 to 513 µM) in assay [1], 12.5 to 150 µg/mL (≈ 42.8 to 513 µM) in assay [2] and less than 1 µg/mL in assay [3] (setting [4]).
Regarding `CCc1cc(C(=O)O)c(=O)[nH]c1-c1ccc(N2CC(NC(=O)OCc3ccccc3)C2)cc1` [Cpd 171, 6-[4-(3-{[(benzyloxy)carbonyl]amino}azetidin-1-yl)phenyl]-5-ethyl-2-oxo-1,2-dihydropyridine-3-carboxylic acid], the minimal inhibitory concentration (MIC) fell in the range of 12.5 to 150 µg/mL (≈ 27.9 to 335 µM) in assay [1], 12.5 to 150 µg/mL (≈ 27.9 to 335 µM) in assay [2] and 3.5 to 12.5 µg/mL (≈ 7.82 to 27.9 µM) in assay [3] (setting [4]).
Take `CCc1cc(C(=O)O)c(=O)[nH]c1-c1cnn(C)c1` [Cpd 346, 5-ethyl-6-(1-methyl-1H-pyrazol-4-yl)-2-oxo-1,2-dihydropyridine-3-carboxylic acid]: the MIC in assay [1], in assay [2] and in assay [3] (setting [4]) was 12.5 to 150 µg/mL (≈ 50.6 to 607 µM) throughout.
Consider `CCc1cc(C(=O)O)c(=O)[nH]c1-c1ccc(N2CCCCC2)cc1OC` [Cpd 59, 5-ethyl-6-[2-methoxy-4-(piperidin-1-yl)phenyl]-2-oxo-1,2-dihydropyridine-3-carboxylic acid], for which the MIC in assay [1], in assay [2] and in assay [3] (setting [4]) was 12.5 to 150 µg/mL (≈ 35.1 to 421 µM) throughout.
With `CCc1cc(C(=O)O)c(=O)[nH]c1-c1ccc(N2CCCC2)cc1C` [Cpd 37, 5-ethyl-6-[2-methyl-4-(pyrrolidin-1-yl)phenyl]-2-oxo-1,2-dihydropyridine-3-carboxylic acid], the minimal inhibitory concentration (MIC) in assay [1], in assay [2] and in assay [3] (setting [4]) was 12.5 to 150 µg/mL (≈ 38.3 to 460 µM) each time.
Regarding `CCc1cc(C(=O)O)c(=O)[nH]c1-c1ccc(C)cc1` [Cpd 27, 5-ethyl-6-(4-methylphenyl)-2-oxo-1,2-dihydropyridine-3-carboxylic acid], the MIC in assay [1] was 12.5 to 150 µg/mL (≈ 48.6 to 583 µM); in assay [2], 12.5 to 150 µg/mL (≈ 48.6 to 583 µM); in assay [3] (setting [4]), less than 1 µg/mL.
Consider `CCc1cc(C(=O)O)c(=O)[nH]c1-c1ccc(N(C)C)cc1C` [Cpd 57, 6-[4-(dimethylamino)-2-methylphenyl]-5-ethyl-2-oxo-1,2-dihydropyridine-3-carboxylic acid], for which the MIC in assay [1], in assay [2] and in assay [3] (setting [4]) was 12.5 to 150 µg/mL (≈ 41.6 to 499 µM) throughout.

These data come from patent publication US9650395B2, “Antibacterial compounds and methods for use” (PTC Therapeutics, Inc., priority 2011, dated 2017).
